Here are results for eleven molecules from patent US11236059B2, “Targeted cytotoxic ratjadone derivatives and conjugates thereof” (HELMHOLTZ-ZENTRUM FUER INFEKTIONSFORSCHUNG GMBH, priority 2017, dated 2022).

The conditions of data set [1]: control compounds; cited from earlier work.
Data set [2] relates to A549 (DSMZ ACC 107) cells. Description: cells. The class given is cell-based. The method, then:
(§1) 60 μL of serial dilutions of the test compound were given to 120 μL of suspended cells (50.000/mL) in wells of 96-well plates. After 5 days of incubation growth inhibition (IC50) was determined using an MTT assay.^[64]

Data set [3] relates to KB 3.1 (DSMZ ACC 158) cells.
Data set [4] concerns MCF-7 (DSMZ ACC 115) cells. Description: cells. The class given is cell-based. The method, then: as §1
Data set [5] concerns SKOV-3 (DSMZ ATCC HTB 77) cells. Description: cells. The class given is cell-based. The method, then: as §1
Data set [6] concerns KB 3.1 (DSMZ ACC 158) cells. Description: cells. The following applies: Homo sapiens, KB 3-1, 120 h, read-out: IC50 [nM] KB-3.1, growth inhibition, 5 days of incubation, MTT assay.
The subject of data set [7] is L-929 (DSMZ ACC 2) cells. Nature of the data set: Cell proliferation assay (MTT), L-929. The following applies: Mus musculus, L929, 120 h, read-out: IC50 [nM] L-929. The data set is classed as cell-based. The method, then:
as §1

Data set [8] deals with T1, CRM1 (Homo sapiens, UniProt O14980).
T1 construct: HeLa cells stably expressing a fluorescent translocation biosensor (HeLaRevBio); endogenous in cells; host or cells: HeLa (HeLaRevBio in A7; HeLa in A8)
T1 sequence (O14980 whole entry): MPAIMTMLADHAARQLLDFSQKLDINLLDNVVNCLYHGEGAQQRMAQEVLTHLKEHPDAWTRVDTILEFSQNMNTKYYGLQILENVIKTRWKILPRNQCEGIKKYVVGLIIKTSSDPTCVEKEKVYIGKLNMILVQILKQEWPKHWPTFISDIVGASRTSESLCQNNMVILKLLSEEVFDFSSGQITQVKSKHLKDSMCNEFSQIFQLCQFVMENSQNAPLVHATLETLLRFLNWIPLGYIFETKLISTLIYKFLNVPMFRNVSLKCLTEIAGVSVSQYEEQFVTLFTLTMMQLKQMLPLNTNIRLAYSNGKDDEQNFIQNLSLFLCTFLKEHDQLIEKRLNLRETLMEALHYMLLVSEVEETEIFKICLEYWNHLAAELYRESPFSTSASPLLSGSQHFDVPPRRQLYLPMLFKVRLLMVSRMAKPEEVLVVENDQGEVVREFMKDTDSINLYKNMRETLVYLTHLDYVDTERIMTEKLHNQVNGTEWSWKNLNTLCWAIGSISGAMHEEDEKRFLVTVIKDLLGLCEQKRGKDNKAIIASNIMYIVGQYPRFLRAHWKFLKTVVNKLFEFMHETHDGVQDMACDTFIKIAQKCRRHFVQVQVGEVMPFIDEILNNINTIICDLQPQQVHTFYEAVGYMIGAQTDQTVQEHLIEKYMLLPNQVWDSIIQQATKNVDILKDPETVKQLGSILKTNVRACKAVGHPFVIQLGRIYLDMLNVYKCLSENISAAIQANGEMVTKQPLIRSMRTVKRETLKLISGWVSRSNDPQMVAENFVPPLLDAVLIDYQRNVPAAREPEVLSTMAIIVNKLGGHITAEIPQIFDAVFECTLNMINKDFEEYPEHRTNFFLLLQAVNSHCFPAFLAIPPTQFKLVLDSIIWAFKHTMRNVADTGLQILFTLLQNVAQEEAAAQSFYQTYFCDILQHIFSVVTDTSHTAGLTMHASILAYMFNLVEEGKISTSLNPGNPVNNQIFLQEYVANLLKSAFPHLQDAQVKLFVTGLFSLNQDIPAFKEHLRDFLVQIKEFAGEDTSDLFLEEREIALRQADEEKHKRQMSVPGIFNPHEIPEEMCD
Nature of the data set: Monitoring export inhibitory activity (translocation biosensor, HeLaRevBio cells). Particulars: HeLa cells stably expressing translocation biosensor, 1h of incubation; read-out: IC50 [nM] CRM1 (nuclear export inhibition). The data set is classed as cell-based. The method, then: Export inhibitory ability of compounds was evaluated with the translocation biosensor system. This cellular assay depends on a recombinantly expressed fusion protein consisting of a nuclear localization signal (SV40-NLS), glutathione S-transferase (GST), green fluorescent protein (GFP) and a nuclear export signal (HIV1-RevNES). Due to the two transport signals (NLS/NES), the biosensor is permanently shuttling between nucleus and cytoplasm but resides prominently in the cytoplasm due to a comparatively stronger NES. Export inhibiting compound induce a nuclear accumulation of the GFP-signal^[65,66] Cell lines were maintained as recommended by the American Type Culture Collection in DMEM containing 5% glutamine (Thermo Fisher Scientific, Waltham, USA) supplemented with 10% FBS (Thermo Fisher Scientific, Waltham, USA). For quantifying the nuclear export inhibitory effect, HeLa cells stably expressing a fluorescent translocation biosensor (HeLaRevBio)^[67] were seeded into black 96 well μclear plates (Greiner, Germany). They next day compounds were added covering an appropriate concentration range. After 1h of incubation, cells were fixed in 4% PFA for 10 min and permeabilized with 0.1% Triton X 100 in PBS for 5 min. After washing with PBS nuclei were labeled with Hoechst H33342 (30 min 10 μg/ml). The intracellular distribution of the biosensor-dependent GFP signal was quantitatively evaluated with the high content imaging system ImageXpress MicroXLS (Molecular Devices, Sunnyvale, USA). By using the translocation enhanced application module (Molecular Devices, Sunnyvale, USA) the GFP-intensity was quantified in the cytoplasm and nuclear region. As final readout the difference of Mean Inner and Mean Outer Intensity was calculated. IC50s of nuclear export inhibition were calculated using Sigma Plot with four parameter logistics curve regression (Systat Software GmbH, Erkrath, Germany). […] The following day compounds were added at 125 nM final concentration.

[9] abbreviates: growth inhibition, 5 days of incubation, MTT assay, read-out: IC50 [nM] A-549 (carrier molecules).
The mark [10] stands for this setting: read-out: IC50 [nM] KB-3.1 (carrier molecules), growth inhibition, 5 days of incubation, MTT assay.
Where [11] appears, read: growth inhibition, 5 days of incubation, MTT assay, read-out: IC50 [nM] MCF-7 (carrier molecules).
[12] abbreviates: growth inhibition, 5 days of incubation, MTT assay, read-out: IC50 [nM] SK-OV-3 (carrier molecules).
Setting [13] is: Homo sapiens, A549, 120 h, read-out: IC50 [nM] A-549, growth inhibition, 5 days of incubation, MTT assay.
[14] abbreviates: Homo sapiens, MCF7, 120 h, read-out: IC50 [nM] MCF-7, growth inhibition, 5 days of incubation, MTT assay.
[15] abbreviates: Homo sapiens, SK-OV-3, 120 h, read-out: IC50 [nM] SK-OV-3, growth inhibition, 5 days of incubation, MTT assay.

Like-named read-outs stand apart in the source and are kept apart here. Numbered stars: 1 amine (or outer) side, 2 acyl side, 3 side chain; on linkers, the order of the positions; unused ones are H or OH. Square brackets hold non-standard residues; d marks the D form. Peptide text beside a SMILES is read from it. * marks the point of attachment. Pteroyl = Nc1nc2ncc(CNc3ccc(C(=O)*)cc3)nc2c(=O)[nH]1; Orn(N3) = [N-]=[N+]=NCCC[C@H](N)C(=O)O; γGlu = O=C(O)[C@H](CCC(=O)[*:2])N[*:1]

As for `CCN(CC)CCOC(=O)c1ccc(N)cc1` [Procaine, procaine], the “stability in mouse plasma” value in data set [1] is listed as “unstable”.

The term IC50 denotes the midpoint of a concentration-inhibition curve. As to `[N-]=[N+]=NCCC[C@H](NC(=O)CC[C@H](NC(=O)c1ccc(NCc2cnc3nc(N)nc(O)c3n2)cc1)C(=O)O)C(=O)N[C@H](CCCCN)C(=O)O` [FA-N3-9, ((S)-2-((S)-4-(4-(((2-amino-4-hydroxypteridin-6-yl)methyl)amino)benzamido)-4-carboxybutanamido)-5-azidopentanoyl)-D-lysine], the half-inhibitory concentration (IC50) in data set [2] (setting [9]) and in data set [3] (setting [10]) was greater than 140000 nM in each case.

Consider `CC(C)C[C@H](NC(=O)CNC(=O)[C@H](Cc1ccc(O)cc1)NC(=O)[C@H](CO)NC(=O)[C@H](Cc1c[nH]c2ccccc12)NC(=O)[C@H](Cc1c[nH]cn1)NC(=O)[C@@H]1CCC(=O)N1)C(=O)N[C@@H](CCCNC(=N)N)C(=O)N1CCC[C@H]1C(=O)NCC(N)=O` [LHRH, (S)—N-(2-amino-2-oxoethyl)-1-(((S)-5-oxopyrrolidine-2-carbonyl)-L-histidyl-L-tryptophyl-L-seryl-L-tyrosylglycyl-L-leucyl-L-arginyl)pyrrolidine-2-carboxamide, reference compound], for which the IC50 in data set [2] (setting [9]), in data set [4] (setting [11]), in data set [5] (setting [12]) and in data set [3] (setting [10]) was greater than 405000 nM each time.

As to `[N-]=[N+]=NCCC[C@H](NC(=O)[C@@H](CC(=O)O)NC(=O)[C@@H](CC(=O)O)NC(=O)[C@@H](CC(=O)O)NC(=O)[C@@H](CC(=O)O)NC(=O)[C@@H](CC(=O)O)NC(=O)CC[C@H](NC(=O)c1ccc(NCc2cnc3nc(N)nc(O)c3n2)cc1)C(=O)O)C(=O)O` [FA-N3-5, N^2-(4-(((2-amino-4-hydroxypteridin-6-yl)methyl)amino)benzoyl)-N5-((R)-1-(((R)-1-(((R)-1-(((R)-1-(((R)-1-(((S)-4-azido-1-carboxybutyl)amino)-3-carboxy-1-oxopropan-2-yl)amino)-3-carboxy-1-oxopropan-2-yl)amino)-3-carboxy-1-oxopropan-2-yl)amino)-3-carboxy-1-oxopropan-2-yl)amino)-3-carboxy-1-oxopropan-2-yl)-L-glutamine] ({Pteroyl-γGlu}-[dD][dD][dD][dD][dD][Orn(N3)]-OH), the IC50 in data set [2] (setting [9]) and in data set [3] (setting [10]) was greater than 86400 nM throughout.

For the molecule `C/C=C/[C@@H]1O[C@H](C(=O)/C=C/C=C(\C)C[C@@H](C)/C=C(C)\C=C\[C@H]2CC=CC(=O)O2)C[C@@H](O)[C@@H]1C` [16-Oxo-Ratjadone 8, (R)-6-((R,1E,3Z,7E,9E)-11-((2S,4R,5S,6S)-4-hydroxy-5-methyl-6-((E)-prop-1-en-1-yl)tetrahydro-2H-pyran-2-yl)-3,5,7-trimethyl-11-oxoundeca-1,3,7,9-tetraen-1-yl)-5,6-dihydro-2H-pyran-2-one], the IC50 in data set [6] is 2.57 nM; in data set [7] it was 12.6 nM; in data set [8], 52.5 nM; in data set [2] (setting [13]), 1.76 nM; in data set [4] (setting [14]) it was 0.22 nM; in data set [5] (setting [15]) it was 0.24 nM.

Regarding `CC(C)C[C@H](NC(=O)C(CCCN=[N+]=[N-])NC(=O)[C@H](Cc1ccc(O)cc1)NC(=O)[C@H](CO)NC(=O)[C@H](Cc1c[nH]c2ccccc12)NC(=O)[C@H](Cc1c[nH]cn1)NC(=O)[C@@H]1CCC(=O)N1)C(=O)N[C@@H](CCCNC(=N)N)C(=O)N1CCC[C@H]1C(=O)NCC(N)=O` (stereo in doubt) [D-N3-Orn-LHRH, (S)-1-(((R)-2-((S)-2-((S)-2-((S)-2-((S)-3-(1H-imidazol-4-yl)-2-((S)-5-oxopyrrolidine-2-carboxamido)propanamido)-3-(1H-indol-3-yl)propanamido)-3-hydroxypropanamido)-3-(4-hydroxyphenyl)propanamido)-5-azidopentanoyl)-L-leucyl-L-arginyl)-N-(2-amino-2-oxoethyl)pyrrolidine-2-carboxamide], the half-maximal inhibitory concentration (IC50) in data set [2] was found to be 318 nM; in data set [4], 47.4 nM; in data set [5], 190 nM; in data set [3], 1110 nM.

Take `CC(C)C[C@H](NC(=O)[C@@H](CCCN=[N+]=[N-])NC(=O)[C@H](Cc1ccc(O)cc1)NC(=O)[C@H](CO)NC(=O)[C@H](Cc1c[nH]c2ccccc12)NC(=O)[C@H](Cc1c[nH]cn1)NC(=O)[C@@H]1CCC(=O)N1)C(=O)N[C@@H](CCCNC(=N)N)C(=O)N1CCC[C@H]1C(=O)NNC(N)=O` [D-N3-Orn-Goserellin, (S)—N-((6S,9S,12R,15S,18S,21S,24S)-21-((1H-indol-3-yl)methyl)-1-amino-12-(3-azidopropyl)-6-((S)-2-(2-carbamoylhydrazine-1-carbonyl)pyrrolidine-1-carbonyl)-15-(4-hydroxybenzyl)-18-(hydroxymethyl)-25-(1H-imidazol-4-yl)-1-imino-9-isobutyl-8,11,14,17,20,23-hexaoxo-2,7,10,13,16,19,22-heptaazapentacosan-24-yl)-5-oxopyrrolidine-2-carboxamide]: the IC50 in data set [2] (setting [9]), in data set [4] (setting [11]), in data set [5] (setting [12]) and in data set [3] (setting [10]) was greater than 663000 nM each time.

`CCCOc1cc(N)ccc1C(=O)OCCN(CC)CC` [propoxycaine]: in data set [1], the “stability in mouse plasma” value is “unstable”.

In the case of `CC(C)C[C@H](NC(=O)[C@H](CCCN=[N+]=[N-])NC(=O)[C@H](Cc1ccc(O)cc1)NC(=O)[C@H](CO)NC(=O)[C@H](Cc1c[nH]c2ccccc12)NC(=O)[C@H](Cc1c[nH]cn1)NC(=O)[C@@H]1CCC(=O)N1)C(=O)N[C@@H](CCCNC(=N)N)C(=O)N1CCC[C@H]1C(=O)NCC(N)=O` [L-N3-Orn-LHRH, (S)-1-(((S)-2-((S)-2-((S)-2-((S)-2-((S)-3-(1H-imidazol-4-yl)-2-((S)-5-oxopyrrolidine-2-carboxamido)propanamido)-3-(1H-indol-3-yl)propanamido)-3-hydroxypropanamido)-3-(4-hydroxyphenyl)propanamido)-5-azidopentanoyl)-L-leucyl-L-arginyl)-N-(2-amino-2-oxoethyl)pyro-lidine-2-carboxamide], the IC50 in data set [2] (setting [9]), in data set [4] (setting [11]), in data set [5] (setting [12]) and in data set [3] (setting [10]) was greater than 727000 nM in each case.

With `[N-]=[N+]=Nc1ccc(C(=O)NCCCC[C@H](NC(=O)CC[C@H](NC(=O)CC[C@H](NC(=O)c2ccc(NCc3cnc4nc(N)nc(O)c4n3)cc2)C(=O)O)C(=O)O)C(=O)O)cc1` [FA-N3-6, (3S,8S,13S)-1-(4-(((2-amino-4-hydroxypteridin-6-yl)methyl)amino)phenyl)-19-(4-azidophenyl)-1,6,11,19-tetraoxo-2,7,12,18-tetraazanonadecane-3,8,13-tricarboxylic acid], the IC50 in data set [2] (setting [9]) and in data set [3] (setting [10]) was greater than 118000 nM each time.

On to `C/C=C/[C@@H]1O[C@H]([C@@H](/C=C/C=C(\C)C[C@@H](C)/C=C(C)\C=C\[C@H]2CC=CC(=O)O2)NC(=O)CCSSc2ccccn2)C[C@@H](O)[C@@H]1C` [2-PySS(CH2)2(CO)NH-Ratja 35, N-((1R,2E,4E,7R,8Z,10E)-1-((2S,4R,5S,6S)-4-Hydroxy-5-methyl-6-((E)-prop-1-en-1-yl)tetrahydro-2H-pyran-2-yl)-5,7,9-trimethyl-11-((R)-6-oxo-3,6-dihydro-2H-pyran-2-yl)undeca-2,4,8,10-tetraen-1-yl)-3-(pyridin-2-yldisulfaneyl)propanamide], for which the half-maximal inhibitory concentration (IC50) in data set [6] turned out to be 8.8 nM; in data set [8], 44.1 nM; in data set [2] (setting [13]), 30.6 nM; in data set [4] (setting [14]), 26 nM; in data set [5] (setting [15]) it was 24.6 nM.
